# Experimental data published in US6737383B1, “Herbicidal oxadiazolidines” (priority 1999, dated 2004).
# How the values were obtained:
# [1] = test system: velvetleaf; test: Test A velvetleaf; type: in vivo, Abutilon theophrasti; settings: 0 to 10 scale where 0 is no effect and 10 is complete control
# Outline: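 Visual injury score, 0 (no effect) to 10 (complete control), vs untreated controls at ~11 d in greenhouse. Pre: soil drench on sandy loam. Post: spray to runoff, 1–2 leaf stage.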
# [2] = test system: fall panicum; test: Test C postemergence fall panicum; type: in vivo, Panicum dichotomiflorum; settings: 0 to 100 scale, 0 no effect, 100 complete control
# Outline: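 In this greenhouse assay, treated and untreated plants were kept for approximately 14 to 21 days following postemergence application, then rated by eye on a scale from 0 (no effect) to 100 (complete control).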
# [3] = test system: field bindweed; test: Test C postemergence field bindweed; type: in vivo, Convolvulus arvensis; settings: 0 to 100 scale, 0 no effect, 100 complete control
# Description: (§1) Compounds evaluated in this test were formulated in a non-phytotoxic solvent mixture which included a surfactant and applied to plants that were grown for various periods of time before treatment (postemergence application). A mixture of sandy loam soil and greenhouse potting mix in a 60:40 ratio was used for the postemergence test.
# (§2) Plantings of these crops and weed species were adjusted to produce plants of appropriate size for the postemergence test. All plant species were grown using normal greenhouse practices. Crop and weed species include arrowleaf sida (Sida rhombifolia), barnyardgrass (Echinochloa crus-galli), cocklebur (Xanthium strumarium), common ragweed (Ambrosia elatior), corn (Zea mays), cotton (Gossypium hirsutum), eastern black nightshade (Solanum ptycanthum), fall panicum (Panicum dichotomiflorum), field bindweed (Convolvulus arvensis), giant foxtail (Setaria faberii), hairy beggarticks (Bidens pilosa), ivyleaf morningglory (Ipomoea hederacea), johnsongrass (Sorghum halepense), ladysthumb smartweed (Polygonum persicaria), lambsquarters (Chenopodium album), large crabgrass (Digitaria sanguinalis), purple nutsedge (Cyperus rotundus), redroot pigweed (Amaranthus retroflexus), soybean (Glycine max), surinam grass (Brachiaria decumbens), velvetleaf (Abutilon theophrasti) and wild poinsettia (Euphorbia heterophylla).
# (§3) Treated plants and untreated controls were maintained in a greenhouse for approximately 14, to 21 days, after which all treated plants were compared to untreated controls and visually evaluated. Plant response ratings, summarized in Table C, were based upon a 0 to 100 scale where 0 was no effect and 100 was complete control. A dash response (−) means no test result.
# [4] = test system: purple nutsedge; test: Test C postemergence purple nutsedge; type: in vivo, Cyperus rotundus; settings: 0 to 100 scale, 0 no effect, 100 complete control
# Description: as §1, §2, §3
# [5] = test system: galium; test: Test E galium; type: in vivo, Galium aparine; settings: Postemergence
# Description: […] A mixture of sandy loam soil and greenhouse potting mix in a 60:40 ratio was used for the postemergence test.
# (§4) Plantings of these crops and weed species were adjusted to produce plants of appropriate size for the postemergence test. All plant species were grown using normal greenhouse practices. Crop and weed species include annual bluegrass (Poa annua), blackgrass (Alopecurus myosuroides), black nightshade (Solanum nigra), chickweed (Stellaria media), common poppy (Papaver rhoeas), deadnettle (Lamium amplexicaule), downy brome (Bromus tectorum), field violet (Viola arvensis), galium (Galium aparine), green foxtail (Setaria viridis), Italian ryegrass (Lolium multiflorum), jointed goatgrass (Aegilops cylindrica), kochia (Kochia scoparia), lambsquarters (Chenopodium album), littleseed canarygrass (Phalaris minor), rape (Brassica napus), redroot pigweed (Amaranthus retroflexus), Russian thistle (Salsola kali), scentless chamomile (Matricaria inodora), spring barley (Hordeum vulgare), sugar beet (Beta vulgaris), sunflower (Helianthus annuus), ivyleaf speedwell (Veronica hederaefolia), spring wheat (Triticum aestivum), winter wheat (Triticum aestivum), wild buckwheat (Polygonum convolvulus), wild mustard (Sinapis arvensis), wild oat (Avena fatua), windgrass (Apera spica-venti) and winter barley (Hordeum vulgare).
# (§5) Treated plants and untreated controls were maintained in a greenhouse for approximately 21 to 28 days, after which all treated plants were compared to untreated controls and visually evaluated. […] A dash response (-) means no test result.
# [6] = test system: spring wheat; test: Test E spring wheat; type: in vivo, Triticum aestivum; settings: Postemergence
# Outline: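 Postemergence: 60:40 sandy loam/greenhouse potting mix, 1- to 4-leaf stage. Formulation: solvent plus surfactant. Assessment: visual comparison with untreated controls at ~21–28 days.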
# [7] = test system: wild oat; test: Test E wild oat; type: in vivo, Avena fatua; settings: Postemergence
# Description: (§6) Compounds evaluated in this test were formulated in a non-phytotoxic solvent mixture which included a surfactant and applied to plants that were in the 1- to 4-leaf stage (postemergence application). A mixture of sandy loam soil and greenhouse potting mix in a 60:40 ratio was used for the postemergence test.
# as §4, §5
# [8] = test system: windgrass; test: Test E windgrass; type: in vivo, Apera spica-venti; settings: Postemergence, Rate 62 g/ha; 0 to 100 scale
# Description: as §6
# Plantings of these crops and weed species were adjusted to produce plants of appropriate size for the postemergence test. All plant species were grown using normal greenhouse practices. […]
# Treated plants and untreated controls were maintained in a greenhouse for approximately 21 to 28 days, after which all treated plants were compared to untreated controls and visually evaluated. […]
# [9] = test system: chickweed; test: Test E chickweed; type: in vivo, Stellaria media; settings: Preemergence
# [10] = test system: downy brome; test: Test E downy brome; type: in vivo, Bromus tectorum; settings: Preemergence
# [11] = test system: field violet; test: Test E field violet; type: in vivo, Viola arvensis; settings: Preemergence
# [12] = test system: lambsquarters; test: Test E lambsquarters; type: in vivo, Chenopodium album; settings: Preemergence
# [13] = test system: rape; test: Test E rape; type: in vivo, Brassica napus; settings: Preemergence
# [14] = test system: Russian thistle; test: Test E Russian thistle; type: in vivo, Salsola kali; settings: Preemergence
# [15] = test system: spring barley; test: Test E spring barley; type: in vivo, Hordeum vulgare; settings: Preemergence
# [16] = test system: sugar beet; test: Test E sugar beet; type: in vivo, Beta vulgaris; settings: Preemergence
# [17] = test system: Green foxtail; test: Test D green foxtail; type: in vivo; settings: Rate 250 g/ha; Postemergence; 0 to 100 scale
# [18] = Rate 250 g/ha, 0 to 100 scale (0 no effect, 100 complete control)
# [19] = Rate 62 g/ha, 0 to 100 scale, 0 no effect, 100 complete control
# [20] = Rate 125 g/ha, 0 to 100 scale (0 no effect, 100 complete control)
smiles,measurement,setting,value
CCN(CC)C(=O)n1oc(=O)n(-c2ccc(OC)cc2)c1=O [Compound 1],"Plant response rating, Velvetleaf","[1]; Postemergence, Rate 1000 g/ha",0
same,"Plant response rating, Velvetleaf","[1]; Pre-emergence, Rate 2000 g/ha",0
Cc1ccccc1-n1c(=O)on(C(=O)N(C2=CCOCC2)C(C)C)c1=O [Compound 10],"Plant response rating, Velvetleaf","[1]; Postemergence, Rate 1000 g/ha",4
same,"Plant response rating, Velvetleaf","[1]; Pre-emergence, Rate 2000 g/ha",2
CC(C)Oc1cc(-n2c(=O)on(C(=O)N(c3ccc(F)cc3)C(C)C)c2=O)c(Cl)cc1Cl [Compound 43],"Plant response rating, Velvetleaf","[1]; Postemergence, Rate 1000 g/ha",0
same,"Plant response rating, Velvetleaf","[1]; Pre-emergence, Rate 2000 g/ha",0
CC(C)N(C(=O)n1oc(=O)n(Cc2cccs2)c1=O)c1ccc(F)cc1 [Compound 80],Plant response rating Fall panicum,[2]; Rate 140 g/ha,0
same,Plant response rating Fall panicum,[2]; Rate 280 g/ha,0
same,Plant response rating Fall panicum,[2]; Rate 560 g/ha,0
same,Plant response rating Fall panicum,[2]; Rate 1120 g/ha,10
same,Plant response rating Field bindweed,[3]; Rate 140 g/ha,0
same,Plant response rating Field bindweed,[3]; Rate 280 g/ha,0
same,Plant response rating Field bindweed,[3]; Rate 560 g/ha,0
same,Plant response rating Field bindweed,[3]; Rate 1120 g/ha,0
same,"Plant response rating, Purple nutsedge",[4]; Rate 140 g/ha,0
same,"Plant response rating, Purple nutsedge",[4]; Rate 280 g/ha,0
same,"Plant response rating, Purple nutsedge",[4]; Rate 560 g/ha,0
same,"Plant response rating, Purple nutsedge",[4]; Rate 1120 g/ha,0
CC(C)N(C(=O)n1oc(=O)n(C2CCCCC2C(F)(F)F)c1=O)c1ccc(F)cc1 (stereo not drawn) [Compound 99],"Plant response rating, Velvetleaf","[1]; Postemergence, Rate 1000 g/ha",2
same,"Plant response rating, Velvetleaf","[1]; Pre-emergence, Rate 2000 g/ha",3
CC(C)N(C(=O)n1oc(=O)n(Cc2cccs2)c1=O)c1ccccc1 [Compound 103],Plant response rating Fall panicum,[2]; Rate 140 g/ha,0
same,Plant response rating Fall panicum,[2]; Rate 280 g/ha,0
same,Plant response rating Fall panicum,[2]; Rate 560 g/ha,0
same,Plant response rating Fall panicum,[2]; Rate 1120 g/ha,30
same,Plant response rating Field bindweed,[3]; Rate 140 g/ha,0
same,Plant response rating Field bindweed,[3]; Rate 280 g/ha,0
same,Plant response rating Field bindweed,[3]; Rate 560 g/ha,0
same,Plant response rating Field bindweed,[3]; Rate 1120 g/ha,0
same,"Plant response rating, Purple nutsedge",[4]; Rate 140 g/ha,0
same,"Plant response rating, Purple nutsedge",[4]; Rate 280 g/ha,0
same,"Plant response rating, Purple nutsedge",[4]; Rate 560 g/ha,0
same,"Plant response rating, Purple nutsedge",[4]; Rate 1120 g/ha,0
CCn1c(=O)on(C(=O)N(c2ccc(Cl)cc2)C(C)C)c1=O [Compound 108],"Plant response rating, Galium","[5]; Rate 62 g/ha, 0 to 100 scale",0
same,"Plant response rating, Galium","[5]; Rate 125 g/ha, 0 to 100 scale",10
same,"Plant response rating, Galium",[5]; [18],50
same,"Plant response rating, Spring Wheat","[6]; Rate 62 g/ha, 0 to 100 scale",10
same,"Plant response rating, Spring Wheat","[6]; Rate 125 g/ha, 0 to 100 scale",10
same,"Plant response rating, Spring Wheat",[6]; [18],20
same,"Plant response rating, Wild oat","[7]; Rate 62 g/ha, 0 to 100 scale",0
same,"Plant response rating, Wild oat","[7]; Rate 125 g/ha, 0 to 100 scale",5
same,"Plant response rating, Wild oat",[7]; [18],20
same,"Plant response rating, Windgrass",[8],80
same,"Plant response rating, Chickweed",[9]; [19],30
same,"Plant response rating, Chickweed",[9]; [20],40
same,"Plant response rating, Chickweed","[9]; Rate 250 g/ha, 0 to 100 scale",30
same,"Plant response rating, Downy brome",[10]; [19],30
same,"Plant response rating, Downy brome",[10]; [20],30
same,"Plant response rating, Downy brome","[10]; Rate 250 g/ha, 0 to 100 scale",70
same,"Plant response rating, Field violet",[11]; [19],15
same,"Plant response rating, Field violet",[11]; [20],0
same,"Plant response rating, Field violet","[11]; Rate 250 g/ha, 0 to 100 scale",20
same,"Plant response rating, Lambsquarters",[12]; [19],80
same,"Plant response rating, Lambsquarters",[12]; [20],100
same,"Plant response rating, Lambsquarters","[12]; Rate 250 g/ha, 0 to 100 scale",90
same,"Plant response rating, Rape",[13]; [19],40
same,"Plant response rating, Rape",[13]; [20],60
same,"Plant response rating, Rape","[13]; Rate 250 g/ha, 0 to 100 scale",50
same,"Plant response rating, Russian thistle",[14]; [19],0
same,"Plant response rating, Russian thistle",[14]; [20],0
same,"Plant response rating, Russian thistle","[14]; Rate 250 g/ha, 0 to 100 scale",15
same,"Plant response rating, Spring Barley",[15]; [19],10
same,"Plant response rating, Spring Barley",[15]; [20],10
same,"Plant response rating, Spring Barley","[15]; Rate 250 g/ha, 0 to 100 scale",5
same,"Plant response rating, Sugar beet",[16]; [19],60
same,"Plant response rating, Sugar beet",[16]; [20],40
same,"Plant response rating, Sugar beet","[16]; Rate 250 g/ha, 0 to 100 scale",60
CC(C)N(C(=O)n1oc(=O)n(C2CC2)c1=O)c1ccc(Cl)cc1 [Compound 241],"Plant response rating, Green foxtail",[17],100
CC(C)N(C(=O)n1oc(=O)n(C2CCC2)c1=O)c1ccccc1 [Compound 348],"Plant response rating, Green foxtail",[17],100
CC(C)N(C(=O)n1oc(=O)n(C2CCC2)c1=O)c1ccc(Cl)cc1 [Compound 349],"Plant response rating, Green foxtail",[17],100
